Results on 16 molecules are retold here after ChEMBL document CHEMBL1909046, “DrugMatrix in vitro pharmacology data”.

Series [1] addresses Aldo-keto reductase family 1 member B1 (Rattus norvegicus, UniProt P07943). It counts as tissue-based, Lens of camera-type eye.
A short description of series [2]: DRUGMATRIX: Sigma2 radioligand binding (ligand: [3H] Ifenprodil). Type of series: cell membranes, Rattus norvegicus, Wistar, Brain, Membrane. To be noted: Not Active = under 50% inhibition at 10 µM.
Series [3] deals with T1, Vasoactive intestinal polypeptide receptor 1 (Homo sapiens, UniProt P32241).
T1 sequence (P32241 whole entry): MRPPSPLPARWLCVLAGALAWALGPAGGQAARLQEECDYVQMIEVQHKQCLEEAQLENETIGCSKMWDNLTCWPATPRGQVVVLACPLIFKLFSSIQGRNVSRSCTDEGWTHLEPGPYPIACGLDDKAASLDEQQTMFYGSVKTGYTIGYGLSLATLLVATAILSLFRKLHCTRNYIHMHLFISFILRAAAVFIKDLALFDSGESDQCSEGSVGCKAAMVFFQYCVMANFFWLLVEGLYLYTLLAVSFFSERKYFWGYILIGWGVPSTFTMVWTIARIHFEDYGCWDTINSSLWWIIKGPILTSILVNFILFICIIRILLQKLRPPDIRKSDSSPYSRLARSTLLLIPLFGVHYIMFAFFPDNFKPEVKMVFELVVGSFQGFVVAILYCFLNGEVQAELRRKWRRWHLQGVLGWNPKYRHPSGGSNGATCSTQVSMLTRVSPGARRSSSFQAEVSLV
Type of series: cell membranes, Membrane. The settings on record: ht-29.

The next series concerns the target Melanocortin receptor 5 (Homo sapiens, UniProt P33032). It counts as cell membranes, HEK293, Membrane. The settings on record: hek293. Also: in other assays of this panel Not Active means under 50% inhibition at 10 µM.
A short description of series [4]: DRUGMATRIX: Potassium Channel [KATP] radioligand binding (ligand: [3H] Glyburide). The settings on record: hit-t15; Not Active = under 50% inhibition at 10 µM. Type of series: cell membranes, Membrane.
A further series deals with Cytochrome P450 2C19 (Homo sapiens, UniProt P33261). The settings on record: bti-tn-5b1-4.
The target of a further series is Cytochrome P450 2C9 (Homo sapiens, UniProt P11712). The settings on record: bti-tn-5b1-4. Also: in other assays of this panel Not Active means under 50% inhibition at 10 µM.

Molecules are shown by their SMILES. pIC50, pKi: −log10 of the molar value.

Sequence of Cytochrome P450 2C9 (P11712 whole entry): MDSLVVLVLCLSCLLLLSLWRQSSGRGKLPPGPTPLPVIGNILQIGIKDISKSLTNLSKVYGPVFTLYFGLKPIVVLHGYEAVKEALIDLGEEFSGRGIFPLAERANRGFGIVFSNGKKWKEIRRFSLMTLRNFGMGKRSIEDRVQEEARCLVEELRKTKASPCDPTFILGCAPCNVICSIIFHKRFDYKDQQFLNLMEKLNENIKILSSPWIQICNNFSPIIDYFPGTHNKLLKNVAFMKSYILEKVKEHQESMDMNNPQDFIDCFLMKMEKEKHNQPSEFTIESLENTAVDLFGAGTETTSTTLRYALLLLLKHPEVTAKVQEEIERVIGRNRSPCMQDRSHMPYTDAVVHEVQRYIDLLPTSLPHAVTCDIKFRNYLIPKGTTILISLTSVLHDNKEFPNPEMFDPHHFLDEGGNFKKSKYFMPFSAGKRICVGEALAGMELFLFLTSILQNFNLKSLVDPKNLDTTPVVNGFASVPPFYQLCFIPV
Sequence of Cytochrome P450 2C19 (P33261 whole entry): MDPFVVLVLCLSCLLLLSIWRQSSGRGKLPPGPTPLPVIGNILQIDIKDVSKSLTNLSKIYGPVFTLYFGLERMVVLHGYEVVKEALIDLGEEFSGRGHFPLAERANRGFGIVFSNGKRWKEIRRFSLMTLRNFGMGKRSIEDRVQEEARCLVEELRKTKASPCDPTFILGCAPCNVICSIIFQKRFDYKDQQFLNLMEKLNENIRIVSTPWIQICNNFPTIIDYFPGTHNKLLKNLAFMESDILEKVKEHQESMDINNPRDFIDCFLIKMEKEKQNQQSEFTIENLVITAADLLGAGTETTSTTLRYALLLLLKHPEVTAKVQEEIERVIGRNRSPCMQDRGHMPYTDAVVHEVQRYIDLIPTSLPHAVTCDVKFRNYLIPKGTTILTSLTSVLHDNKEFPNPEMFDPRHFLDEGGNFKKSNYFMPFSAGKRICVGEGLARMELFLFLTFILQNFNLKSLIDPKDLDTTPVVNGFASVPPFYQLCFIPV
Sequence of Melanocortin receptor 5 (P33032 whole entry): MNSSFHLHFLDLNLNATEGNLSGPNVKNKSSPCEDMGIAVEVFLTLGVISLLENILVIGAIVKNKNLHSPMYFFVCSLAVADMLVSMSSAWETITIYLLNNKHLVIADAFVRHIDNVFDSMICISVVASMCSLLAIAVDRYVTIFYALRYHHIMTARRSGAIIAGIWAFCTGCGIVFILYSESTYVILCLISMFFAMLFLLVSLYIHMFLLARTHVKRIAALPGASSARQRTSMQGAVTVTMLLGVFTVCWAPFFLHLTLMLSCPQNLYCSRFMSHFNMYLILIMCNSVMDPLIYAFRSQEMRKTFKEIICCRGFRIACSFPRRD

Take `CCN1CCC[C@H]1CNC(=O)c1cc(S(N)(=O)=O)ccc1OC` [LEVOSULPIRIDE]: the IC50 entry (in series [1]; in series [2]; in series [3]; on Melanocortin receptor 5; in series [4]; at Cytochrome P450 2C19) was “Not Active” in each case. In addition, the IC50 entry against Cytochrome P450 2C9 is “Not Active”. The Ki result (in series [2]; in series [4]; at Cytochrome P450 2C19; on Cytochrome P450 2C9) was “Not Active” each time.
Turning to `O=C1Nc2ccc(Cl)cc2C(c2ccccc2Cl)=NC1O` (stereo unspecified) [LORAZEPAM], the IC50 entry (in series [1]; in series [2]; in series [3]; on Melanocortin receptor 5; in series [4]; against Cytochrome P450 2C19) was “Not Active” each time. Moreover, on Cytochrome P450 2C9, the IC50 entry is listed as “Not Active”. The Ki entry (in series [2]; in series [4]; at Cytochrome P450 2C19; at Cytochrome P450 2C9) was “Not Active” in each case.
In the case of `CO[C@@H]1[C@@H](OC)[C@H](C)[C@@](O)(CC(=O)O)O[C@H]1[C@H](C)[C@H]1O[C@@]2(CC[C@@](C)([C@H]3CC[C@@](C)([C@@H]4O[C@@H]([C@H]5O[C@](C)(O)[C@H](C)C[C@@H]5C)C[C@@H]4O[C@@H]4C[C@H](OC)[C@@H](OC)[C@H](C)O4)O3)O2)C[C@H](O)[C@H]1C` [MADURAMICIN ACID], the IC50 result (in series [1]; in series [2]; in series [3]; at Melanocortin receptor 5; in series [4]; on Cytochrome P450 2C19) was “Not Active” each time. Further, the IC50 result against Cytochrome P450 2C9 is on record as “Not Active”. In addition, the Ki entry (in series [2]; in series [4]; on Cytochrome P450 2C19; at Cytochrome P450 2C9) was “Not Active” throughout.
For `COc1c2occc2cc2ccc(=O)oc12` [METHOXSALEN], the IC50 result (in series [1]; in series [2]; in series [3]; on Melanocortin receptor 5; in series [4]; on Cytochrome P450 2C19) was “Not Active” throughout. On Cytochrome P450 2C9, the IC50 result is “Not Active”. In addition, the Ki result (in series [2]; in series [4]; on Cytochrome P450 2C19; on Cytochrome P450 2C9) was “Not Active” in each case.
`Cc1cccc(C)c1OCC(C)N` (stereo unspecified) [MEXILETINE]: the IC50 result (in series [1]; in series [2]; in series [3]; against Melanocortin receptor 5; in series [4]; against Cytochrome P450 2C19) was “Not Active” throughout. Also, on Cytochrome P450 2C9, the IC50 entry is “Not Active”. The Ki entry (in series [2]; in series [4]; at Cytochrome P450 2C19; on Cytochrome P450 2C9) was “Not Active” in each case.
For the molecule `Nc1cc(N2CCCCC2)nc(N)[n+]1[O-]` [MINOXIDIL], the IC50 result (in series [1]; in series [2]; in series [3]; against Melanocortin receptor 5; in series [4]; at Cytochrome P450 2C19) was “Not Active” each time. The IC50 result against Cytochrome P450 2C9 is “Not Active”. The Ki entry (in series [2]; in series [4]; on Cytochrome P450 2C19; on Cytochrome P450 2C9) was “Not Active” throughout.
Regarding `CO[C@H]1/C=C/O[C@@]2(C)Oc3c(C)c(O)c4c(O)c(c(/C=N/N5CCN(C6CCCC6)CC5)c(O)c4c3C2=O)NC(=O)/C(C)=C\C=C\[C@H](C)[C@H](O)[C@@H](C)[C@@H](O)[C@@H](C)[C@H](OC(C)=O)[C@@H]1C` [RIFAPENTINE], the IC50 entry (in series [1]; in series [2]; in series [3]; against Melanocortin receptor 5; in series [4]; against Cytochrome P450 2C19) was “Not Active” in each case. The IC50 result at Cytochrome P450 2C9 was “Not Active”. The Ki entry (in series [2]; in series [4]; at Cytochrome P450 2C19; at Cytochrome P450 2C9) was “Not Active” in each case.
In the case of `CCCCOc1cc(CC2CNC(=O)N2)ccc1OC` (stereo unspecified) [RO-201724], the IC50 entry (in series [1]; in series [2]; in series [3]; against Melanocortin receptor 5; in series [4]; on Cytochrome P450 2C19) was “Not Active” each time. Also, the IC50 entry against Cytochrome P450 2C9 is reported as “Not Active”. Besides, the Ki entry (in series [2]; in series [4]; on Cytochrome P450 2C19; at Cytochrome P450 2C9) was “Not Active” each time.
In the case of `CC[C@@H](C(=O)[C@@H](C)[C@@H](O)[C@H](C)[C@@H]1O[C@@H]([C@@H](CC)C(=O)O)CC[C@@H]1C)[C@H]1O[C@]2(C=C[C@@H](O)[C@]3(CC[C@@](C)([C@H]4CC[C@](O)(CC)[C@H](C)O4)O3)O2)[C@H](C)C[C@@H]1C` [SALINOMYCIN], the IC50 entry (in series [1]; in series [2]; in series [3]; against Melanocortin receptor 5; in series [4]; against Cytochrome P450 2C19) was “Not Active” throughout. The IC50 result on Cytochrome P450 2C9 is recorded as “Not Active”. Further, the Ki result (in series [2]; in series [4]; on Cytochrome P450 2C19; on Cytochrome P450 2C9) was “Not Active” throughout.
Turning to `O=C(Oc1ccccc1C(=O)O)c1ccccc1O` [SALSALATE], the IC50 result (in series [1]; in series [2]; in series [3]; against Melanocortin receptor 5; in series [4]; at Cytochrome P450 2C19) was “Not Active” throughout. Moreover, the IC50 result against Cytochrome P450 2C9 is “Not Active”. Moreover, the Ki entry (in series [2]; in series [4]; on Cytochrome P450 2C19; on Cytochrome P450 2C9) was “Not Active” each time.
Consider `O=C(O)c1cn(-c2ccc(F)cc2)c2cc(N3CCNCC3)c(F)cc2c1=O` [SARAFLOXACIN], for which the IC50 entry (in series [1]; in series [2]; in series [3]; at Melanocortin receptor 5; in series [4]; against Cytochrome P450 2C19) was “Not Active” each time. Also, at Cytochrome P450 2C9, the IC50 entry is recorded as “Not Active”. Besides, the Ki result (in series [2]; in series [4]; on Cytochrome P450 2C19; at Cytochrome P450 2C9) was “Not Active” throughout.
For `CC(C)NCC(O)c1ccc(NS(C)(=O)=O)cc1` (stereo unspecified) [SOTALOL], the IC50 result (in series [1]; in series [2]; in series [3]; on Melanocortin receptor 5; in series [4]; against Cytochrome P450 2C19) was “Not Active” each time. The IC50 result at Cytochrome P450 2C9 is “Not Active”. Besides, the Ki entry (in series [2]; in series [4]; on Cytochrome P450 2C19; on Cytochrome P450 2C9) was “Not Active” in each case.
With `O=C1C(CC[S+]([O-])c2ccccc2)C(=O)N(c2ccccc2)N1c1ccccc1` (stereo unspecified) [SULFINPYRAZONE], the IC50 entry (in series [1]; in series [2]; in series [3]; on Melanocortin receptor 5; in series [4]; against Cytochrome P450 2C19) was “Not Active” each time. The IC50 result against Cytochrome P450 2C9 is “Not Active”. The Ki result (in series [2]; in series [4]; on Cytochrome P450 2C19; at Cytochrome P450 2C9) was “Not Active” throughout.
`CN(C/C=C/C#CC(C)(C)C)Cc1cccc2ccccc12` [TERBINAFINE]: the IC50 entry (in series [1]; in series [3]; at Melanocortin receptor 5; in series [4]; against Cytochrome P450 2C19; on Cytochrome P450 2C9) was “Not Active” in each case. Also, the pIC50 (as a rule, the negative decadic logarithm of the IC50, by convention in mol/L) in series [2] (read-out: IC50) is 7.45. Further, the pKi (in general, the negative decadic logarithm of the Ki, by convention in mol/L) in series [2] (read-out: Ki) was 7.66. Also, the Ki result (in series [4]; at Cytochrome P450 2C19; on Cytochrome P450 2C9) was “Not Active” in each case.
On to `CS(=O)(=O)c1ccc([C@@H](O)[C@@H](CO)NC(=O)C(Cl)Cl)cc1` [THIAMPHENICOL], for which the IC50 result (in series [1]; in series [2]; in series [3]; on Melanocortin receptor 5; in series [4]; at Cytochrome P450 2C19) was “Not Active” throughout. In addition, the IC50 entry against Cytochrome P450 2C9 is recorded as “Not Active”. Moreover, the Ki entry (in series [2]; in series [4]; at Cytochrome P450 2C19; at Cytochrome P450 2C9) was “Not Active” throughout.
On to `CCN(CC)CCNC(=O)c1cc(S(C)(=O)=O)ccc1OC` [TIAPRIDE], for which the IC50 result (in series [1]; in series [2]; in series [3]; on Melanocortin receptor 5; in series [4]; against Cytochrome P450 2C19) was “Not Active” throughout. In addition, at Cytochrome P450 2C9, the IC50 entry is “Not Active”. Moreover, the Ki result (in series [2]; in series [4]; at Cytochrome P450 2C19; at Cytochrome P450 2C9) was “Not Active” throughout.
